Experimental data from article PMC12064607 (Clinical Pharmacokinetics, 2025).
Read-outs that look alike come from different tables or passages of the source.

Legend:
[1] = human, in vivo
[2] = system: BetaCoV/Belgium/GHB-03021/2020; conditions: cited from earlier work
WA1 = system: WA1; design: method as in Pitts et al[4]; conditions: A549-ACE2-TMPRSS, Nucleoprotein ELISA, ref Pitts et al[4]; cited from earlier work
Delta = conditions: A549-ACE2-TMPRSS, Nucleoprotein ELISA, ref Pitts et al[4]; cited from earlier work
Omicron = conditions: A549-ACE2-TMPRSS, Nucleoprotein ELISA, ref Pitts et al[4]; cited from earlier work
Omicron/BA.2 = system: Omicron/BA.2; design: method as in Takashita et al[5]; conditions: Vero E6, Focus reduction, ref Takashita et al[5]; cited from earlier work
clinical = conditions: human, in vivo
plasma protein = conditions: cited from earlier work
[3] = plasma samples; cited from earlier work
[4] = system: nCoV-2019BetaCoV/Wuhan/WIV04/2019; conditions: cited from earlier work
[5] = system: BetaCoV/France/IDF0571/2020; conditions: cited from earlier work
[6] = human, in vivo; cited from earlier work

## N#C[C@@]1(c2ccc3c(N)ncnn23)O[C@H](CO)[C@@H](O)[C@H]1O [GS-441524]
[1]
  Age effect on V, bootstrap median: –1.18
  Age effect on V, final model mean: –1.15
  V/fm, bootstrap median: 429 L
  V/fm, final model mean: 429 L
  eGFR effect on CL, bootstrap median: 1.23
  eGFR effect on CL, final model mean: 1.12
[2]
  EC50: 510 nM
WA1
  EC50: 5600 nM
Delta
  EC50: 3260 nM
Omicron
  EC50: 3150 nM
Omicron/BA.2
  EC50: 2850 nM
clinical; CL/fm, bootstrap median
  clearance: 267 mL/min
clinical; CL/fm, final model mean
  clearance: 265 mL/min
Plasma protein
  protein binding: 2%
[3]
  stable at room temperature: 48 h

## CCC(CC)COC(=O)[C@H](C)N[P@](=O)(OC[C@H]1O[C@@](C#N)(c2ccc3c(N)ncnn23)[C@H](O)[C@@H]1O)Oc1ccccc1 [Remdesivir, reference compound]
[1]
  V, bootstrap median: 111 L
[4]
  EC50: 770 nM
  EC90: 1760 nM
[5]
  EC50: 990 nM
[2]
  EC50: 48 nM
Delta
  EC50: 70 nM
Omicron
  EC50: 42 nM
clinical; CL, bootstrap median
  clearance: 1670 mL/min
clinical; iv, CL, final model mean
  clearance: 1600 mL/min
[6]
  clearance: 207 L/h
Plasma protein; human
  protein binding: 97%
